Measurements as given in patent publication US6906078B2, “Method of using (H+/K+) ATPase inhibitors as antiviral agents” (Pharmacia Corporation, priority 1994, dated 2005).
pIC50: −log10 of the molar value.

Columns and labels:
(H+/K+)-ATPase = target: T1, (H+/K+)-ATPase (Canis lupus familiaris, UniProt P50996); test: Inhibition of (H+/K+)-ATPase from canine gastric mucosa (inorganic phosphate release); type: biochemical; conditions: canine gastric mucosa microsomes, pH 6.0, 30 min preincubation at 37° C.; read-out: (H+/K+)-ATPase IC50
T1 construct: The microsomes retained at the 15%-30% sucrose interface, after centrifugation at 250,000×g for sixty minutes, were used as the source of (H^+/K^+)-ATPase; from tissue; host or cells: gastric glandular mucosa of mongrel dogs (microsomal fraction, lyophilized)
Description: Mongrel dogs weighing 15 to 25 kilograms were fasted for twenty-four hours, with water provided ad libitum. The animals were anesthetized with pentobarbital and the stomachs were removed. Subsequent tissue manipulations and subcellular fractionations were performed at 0° C. to 4° C. After the stomachs were cut open and rinsed with tap water, the antral and cardiac regions were removed and the remaining tissue was rinsed three times in saline. The glandular mucosa was removed mechanically, chopped finely in a medium containing 10 mM Tris hydrochloride (pH 7.4) and 250 mM sucrose, and homogenized. The homogenate was centrifuged at 20,000×g for twenty minutes and the pellet discarded. The supernatant was then centrifuged at 150,000×g for ninety minutes and the supernatant discarded. The pellet was resuspended in the Tris-HCl/sucrose medium by homogenization. Part (2 ml) of the resultant microsomal suspension was layered onto a step gradient consisting of 9 ml of 15% sucrose above 12 ml of 30% sucrose, each sucrose solution being buffered with 10 mM Tris hydrochloride (pH 7.4) containing 0.01% sodium azide. The microsomes retained at the 15%-30% sucrose interface, after centrifugation at 250,000×g for sixty minutes, were used as the source of (H^+/K^+)-ATPase. Microsomal preparations were lyophilized, a process that assured potassium ion permiability, and stored at −10° C. until used.
(H^+/K^+)-ATPase activity for each test compound was determined, in duplicate, by measuring the release of inorganic phosphate, which was assayed according to the method of J. ChandraRajan and L. Klein, Anal. Biochem., 72 , 407 (1976). The (H^+/K^+)-ATPase assay medium consisted of 20 mm mes-Tris (pH 6.0), 5 mM magnesium chloride, 25 mM sucrose, and 4 mM Tris-ATP with or without 20 mM potassium chloride in a total volume of 2 ml. Microsomal suspensions (20 to 60 mcl, containing about 25 mcg protein) were added to the assay medium, without Tris-ATP, and then preincubated with a test compound for thirty minutes at 37° C. The assay was initiated by adding Tris-ATP and the mixture was incubated another thirty minutes at 37° C. A 200-mcl aliquot of the assay mixture was then added to 1.4 ml of a solution consisting of 0.1 M sodium acetate (pH 4.0) and 10% sodium dodecylsulfate, followed by the addition of 200 mcl each of 1% ammonium molybdate and 1% ascorbic acid. At least fifteen minutes later, the optical absorbance at 870 nm (which was proportional to inorganic phosphate concentration up to 100 nmoles per tube, as determined by a standard curve) was obtained. Enzyme activity was linear with incubation time.
(H^+/K^+)-ATPase activity is represented by the difference between the measured activities in the presence of potassium-ion (K^+-stimulated) and in the absence of potassium ion (basal).

T1 sequence (P50996 whole entry): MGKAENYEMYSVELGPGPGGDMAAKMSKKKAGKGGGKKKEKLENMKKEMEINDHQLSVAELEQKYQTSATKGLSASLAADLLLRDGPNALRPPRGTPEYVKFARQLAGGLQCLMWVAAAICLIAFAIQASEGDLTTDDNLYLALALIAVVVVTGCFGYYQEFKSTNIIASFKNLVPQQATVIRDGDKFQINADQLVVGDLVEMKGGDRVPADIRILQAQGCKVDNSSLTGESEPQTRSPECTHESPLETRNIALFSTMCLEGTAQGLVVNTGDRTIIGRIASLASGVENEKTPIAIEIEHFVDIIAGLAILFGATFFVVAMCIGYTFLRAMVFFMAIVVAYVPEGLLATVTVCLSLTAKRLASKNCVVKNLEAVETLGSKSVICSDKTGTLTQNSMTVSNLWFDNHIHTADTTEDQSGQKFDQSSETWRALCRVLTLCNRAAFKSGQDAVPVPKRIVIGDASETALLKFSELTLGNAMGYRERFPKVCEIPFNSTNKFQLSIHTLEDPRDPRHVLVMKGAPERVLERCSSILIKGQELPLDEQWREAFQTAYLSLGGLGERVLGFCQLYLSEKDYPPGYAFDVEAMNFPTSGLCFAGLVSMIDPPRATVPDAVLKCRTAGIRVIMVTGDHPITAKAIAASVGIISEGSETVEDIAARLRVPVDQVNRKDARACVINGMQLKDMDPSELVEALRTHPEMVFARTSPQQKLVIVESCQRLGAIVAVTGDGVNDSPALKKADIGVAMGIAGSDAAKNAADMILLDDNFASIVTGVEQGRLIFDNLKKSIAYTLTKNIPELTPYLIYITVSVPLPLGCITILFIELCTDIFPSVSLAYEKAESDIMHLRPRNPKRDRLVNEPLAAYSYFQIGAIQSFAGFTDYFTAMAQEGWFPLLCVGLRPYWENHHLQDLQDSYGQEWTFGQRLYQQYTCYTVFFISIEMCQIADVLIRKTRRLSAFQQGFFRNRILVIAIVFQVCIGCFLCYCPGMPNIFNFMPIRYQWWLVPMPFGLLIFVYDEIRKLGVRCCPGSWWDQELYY
T1 sequence (P33704 whole entry partner): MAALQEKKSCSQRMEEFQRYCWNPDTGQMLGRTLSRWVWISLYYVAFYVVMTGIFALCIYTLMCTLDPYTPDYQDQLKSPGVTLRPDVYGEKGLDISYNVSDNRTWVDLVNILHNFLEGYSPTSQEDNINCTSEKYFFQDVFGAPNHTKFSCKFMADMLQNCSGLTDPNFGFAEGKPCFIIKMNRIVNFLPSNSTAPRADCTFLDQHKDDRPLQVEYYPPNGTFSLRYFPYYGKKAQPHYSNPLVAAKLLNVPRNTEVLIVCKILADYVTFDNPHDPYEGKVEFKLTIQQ

Row | pIC50 ((H+/K+)-ATPase) | melting point | Structure (SMILES)
1 | 5.16 | – | Nc1cccc(C[S+]([O-])c2nc3cc(Cl)ccc3[nH]2)n1 (stereo not shown) [Example 93, 6-[[(5-Chloro-1H-benzimidazol-2-yl)-sulfinyl]methyl]-2-pyridinamine]
2 | – | 130 to 134 °C | Cc1cccc(CSc2nc3ccccc3[nH]2)c1N [Example 27, 2-[(1H-Benzimidazol-2-ylthio)methyl]-6-methylbenzenamine]
3 | – | 109 to 112 °C | CNc1ccccc1CSc1nc2ccccc2[nH]1 [Example 31, 2-[(1H-Benzimidazol-2-ylthio)methyl]-N-methylbenzenamine]
4 | – | ~ 100 °C | COc1cc(Cl)c(C)c(CSc2nc3ccccc3[nH]2)c1N [Example 58, 2-[(1H-Benzimidazol-2-ylthio)methyl]-4-chloro-6-methoxy-3-methylbenzenamine]
5 | – | 140 to 142 °C | COc1ccc2[nH]c(SCc3ccccc3N)nc2c1 [Example 11, 2-[[(5-methoxy-1H-benzimidazol-2-yl)thio]methyl]benzenamine]
6 | – | 130 to 137 °C | Nc1ccc(C(F)(F)F)cc1CSc1nc2ccccc2[nH]1 [Example 48, 2-[(1H-Benzimidazol-2-ylthio)methyl]-4-(trifluoromethyl)benzenamine]
7 | – | 87 to 89 °C | CCOc1ccc2[nH]c(SCc3ccccc3N)nc2c1.O (hydrate or solvate)
8 | 3.92 | – | COc1cc2nc([S+]([O-])Cc3cc(C)ccc3N)[nH]c2cc1OC (stereo not shown) [Example 75]
9 | 4.63 | – | COc1cc2nc([S+]([O-])Cc3cccc(N)n3)[nH]c2cc1OC (stereo not shown) [Example 99, 6-[[(5,6-Dimethoxy-1H-benzimidazol-2-yl)-sulfinyl]methyl]-2-pyridinamine ¼ hydrate]
10 | 5.82 | – | Cc1ccc(C)c(C[S+]([O-])c2nc3cc(C(F)(F)F)ccc3[nH]2)c1N (stereo not shown) [Example 65]
11 | 4.46 | – | Nc1ccc(C[S+]([O-])c2nc3ccccc3[nH]2)cn1 (stereo not shown) [Example 111, 5-[(1H-Benzimidazol-2-ylsulfinyl)methyl]-2-pyridinamine ¼ hydrate]
12 | – | 152 to 153 °C | Cc1cccc(N)c1C[S+]([O-])c1nc2ccccc2[nH]1 (stereo not shown) (hydrate or solvate) [Example 24, 2-[(1H-Benzimidazol-2-ylsulfinyl)methyl]-3-methylbenzenamine ¼ hydrate]
13 | – | 139 to 141 °C | Cc1cc(C)c(N)c(CSc2nc3ccccc3[nH]2)c1 [Example 29, 2-[(1H-Benzimidazol-2-ylthio)methyl]-4,6-dimethylbenzenamine]
14 | – | 114 to 118 °C | Nc1ccc(Cl)cc1CSc1nc2ccccc2[nH]1 [Example 15, 2-[(1H-Benzimidazol-2-ylthio)methyl]-4-chlorobenzenamine]
15 | 5.74 | – | Cc1cc(C)c2nc([S+]([O-])Cc3cccc(N)n3)[nH]c2c1 (stereo not shown) [Example 103, 6-[[(4,6-Dimethyl-1H-benzimidazol-2-yl)-sulfinyl]methyl]-2-pyridinamine]
16 | – | 158 to 160.5 °C | Nc1cc(Cl)ccc1CSc1nc2ccccc2[nH]1 [Example 17, 2-[(1H-Benzimidazol-2-ylthio)methyl]-5-chlorobenzenamine]
17 | – | 144 to 145 °C | Cc1ccc(C)c(C[S+]([O-])c2nc3ccccc3[nH]2)c1N.O (stereo not shown) (hydrate or solvate) [Example 55, 2-[(1H-Benzimidazol-2-ylsulfinyl)methyl]-3,6-dimethylbenzenamine monohydrate]
18 | 4.60 | 184 to 185 °C | Nc1ccc(F)cc1C[S+]([O-])c1nc2ccccc2[nH]1 (stereo not shown) [Example 76, 2-[(1H-Benzimidazol-2-ylsulfinyl)methyl]-4-fluorobenzenamine]

Row | pIC50 ((H+/K+)-ATPase) | melting point | Structure (SMILES)
19 | – | 167 to 170 °C | CN(C)c1ccccc1CSc1nc2ccccc2[nH]1 [Example 1, 2-[(1H-Benzimidazol-2-ylthio)methyl]-N,N-dimethylbenzenamine]
20 | – | 132 to 134 °C | COc1ccc2[nH]c(SCc3cccc(C)c3N)nc2c1 [Example 35, 2-[[(5-methoxy-1H-benzimidazol-2-yl)thio]methyl]-6-methylbenzenamine]
21 | – | 206 to 208 °C | COc1ccc(N)c(CSc2nc3ccccc3[nH]2)c1.Cl.Cl
22 | 6.09 | – | Cc1ccc(C)c(C[S+]([O-])c2nc3ccccc3[nH]2)c1N (stereo not shown) [Example 55, 2-[(1H-Benzimidazol-2-ylsulfinyl)methyl]-3,6-dimethylbenzenamine monohydrate]
23 | – | 179 to 181 °C | Cc1cc2nc([S+]([O-])Cc3ccccc3N)[nH]c2cc1C (stereo not shown) (hydrate or solvate) [Example 10, 2-[[(5,6-Dimethyl-1H-benzimidazol-2-yl)sulfinyl]methyl]benzenamine ¼ hydrate]
24 | 5.02 | – | Nc1cccc(C[S+]([O-])c2nc3cc(CO)ccc3[nH]2)n1 (stereo not shown) [Example 105, 6-[[[5-(Hydroxymethyl)-1H-benzimidazol-2-yl]sulfinyl]methyl]-2-pyridinamine ¼ hydrate]
25 | 5.16 | – | Nc1cccc(C[S+]([O-])c2nc3cc(C(F)(F)F)ccc3[nH]2)n1 (stereo not shown) [Example 95, 6-[[[5-(Trifluoromethyl)-1H-benzimidazol-2-yl]sulfinyl]methyl]-2-pyridinamine]
26 | – | 140 to 146 °C | CCOC(=O)c1ccc(N)c(CSc2nc3cc(OC)ccc3[nH]2)c1 [Example 72, Ethyl 4-amino-3-[[(5-methoxy-1H-benzimidazol-2-yl)thio]methyl]benzoate]
27 | – | 174 to 176 °C | CCOC(=O)c1ccc(N)c(CSc2nc3ccccc3[nH]2)c1 [Example 70, Ethyl 4-amino-3-[(1H-benzimidazol-2-ylthio)methyl]benzoate]
28 | 5.04 | – | CC(C)(C)CNc1cccc(C[S+]([O-])c2nc3ccccc3[nH]2)n1 (stereo not shown) [Example 107, 6-[(1H-Benzimidazol-2-ylsulfinyl)methyl]-N-(2,2-dimethylpropyl)-2-pyridinamine ¼ hydrate]
29 | 6.14 | – | Cc1cc2nc([S+]([O-])Cc3cccc(N)n3)[nH]c2cc1C (stereo not shown) [Example 101, 6-[[(5,6-Dimethyl-1H-benzimidazol-2-yl)-sulfinyl]methyl]-2-pyridinamine]
30 | 5.77 | – | Cc1ccc2[nH]c([S+]([O-])Cc3cccc(N)n3)nc2c1 (stereo not shown) [Example 89, 6-[[(5-Methyl-1H-benzimidazol-2-yl)-sulfinyl]methyl]-2-pyridinamine]
31 | 5.66 | – | Cc1cccc2[nH]c([S+]([O-])Cc3cccc(N)n3)nc12 (stereo not shown) [Example 87, 6-[[(4-Methyl-1H-benzimidazol-2-yl)-sulfinyl]methyl]-2-pyridinamine]
32 | – | 160 °C (dec.) | Cc1ccc(C[S+]([O-])c2nc3ccccc3[nH]2)c(N)c1C (stereo not shown) (hydrate or solvate) [Example 53, 2-[(1H-Benzimidazol-2-ylsulfinyl)methyl]-5,6-dimethylbenzenamine ¼ hydrate]
33 | – | 125 to 127 °C | Cc1cccc2[nH]c(SCc3ccccc3N)nc12 [Example 7, 2-[[(4-Methyl-1H-benzimidazol-2-yl)thio]methyl]benzenamine]
34 | 5.51 | – | CCOc1ccc2[nH]c([S+]([O-])Cc3cccc(N)n3)nc2c1 (stereo not shown) [Example 97, 6-[[(5-Ethoxy-1H-benzimidazol-2-yl)-sulfinyl]methyl]-2-pyridinamine]
35 | 5.07 | – | COc1cccc(C[S+]([O-])c2nc3cc(C(F)(F)F)ccc3[nH]2)c1N (stereo not shown) [Example 67]

Row | Structure (SMILES) | pIC50 ((H+/K+)-ATPase) | melting point
36 | CNc1ccccc1C[S+]([O-])c1nc2ccccc2[nH]1.O (stereo not shown) (hydrate or solvate) [Example 32, 2-[(1H-Benzimidazol-2-ylsulfinyl)methyl]-N-methylbenzenamine monohydrate] | – | 117 to 120 °C
37 | Cc1ccc2[nH]c([S+]([O-])Cc3ccc(C)c(C)c3N)nc2c1 (stereo not shown) [Example 63, 2-[[(5-Methyl-1H-benzimidazol-2-yl)sulfinyl]-methyl]-5,6-dimethylbenzenamine hemihydrate] | 6.15 | –
38 | Cc1cc(C)c(N)c(C[S+]([O-])c2nc3ccccc3[nH]2)c1 (stereo not shown) [Example 30, 2-[(1H-Benzimidazol-2-ylsulfinyl)methyl]-4,6-dimethylbenzenamine hemihydrate] | 6.07 | –
39 | Cc1cc(N)c(C[S+]([O-])c2nc3ccccc3[nH]2)c(C)c1C (stereo not shown) [Example 77, 2-[(1H-Benzimidazol-2-ylsulfinyl)methyl]-3,4,5-trimethylbenzenamine hemihydrate] | 4.80 | –
